According to US9493420B2, “Quinoline derivatives and uses thereof” (Portland State University, priority 2005, dated 2016):

Key:
[1] = Adverse side effects in treated mice of the 4-day suppressive test; type: in vivo; details: 64, 32, 16 mg/kg oral gavage once per day for four days; CF-1 mice
Source text: A variation of the 4-day suppressive test described by Peters (Ann. Trop. Med. Parasitol., 69(2):155-171, 1975) was used to test the in vivo effectiveness of RCQ_02 as a treatment for Plasmodium sp. infection. Briefly, P. chabaudi parasites (Mackinnon and Read, Philos. Trans. R. Soc. Lond. B Biol. Sci., 359:965-986, 2004) were collected from a donor animal harboring approximately 20% parasitemia. Sixteen (16) male CF-1 mice at 4-5 weeks of age (approximately 20 g) were infected with approximately 10^7 infected red blood cells via 100 μL tail vein injection. The infected mice were randomly sorted into groups of 4 mice each on day 0. One hour after infection, each group of four mice received 64, 32, 16, or 0 mg/kg RCQ_02 via oral gavage once per day for four days. After the treatment course, the animals were weighed and blood collected for the determination of parasite burden via direct microscopic analysis of Giemsa-stained blood smears. Mice treated with 64 mg/kg RCQ_02 were all cleared of parasites to >99% by day 4.

Water solubility = type: physicochemical
[2] = molecular target: T1, recombinant human norepinephrine (hNET) transporter (Homo sapiens, UniProt P23975); test: Inhibition of [3H]neurotransmitter uptake, hNET; type: cell-based
T1 construct: expressed in transfected cells; host or cells: HEK cells expressing hNET
T1 sequence (P23975 whole entry): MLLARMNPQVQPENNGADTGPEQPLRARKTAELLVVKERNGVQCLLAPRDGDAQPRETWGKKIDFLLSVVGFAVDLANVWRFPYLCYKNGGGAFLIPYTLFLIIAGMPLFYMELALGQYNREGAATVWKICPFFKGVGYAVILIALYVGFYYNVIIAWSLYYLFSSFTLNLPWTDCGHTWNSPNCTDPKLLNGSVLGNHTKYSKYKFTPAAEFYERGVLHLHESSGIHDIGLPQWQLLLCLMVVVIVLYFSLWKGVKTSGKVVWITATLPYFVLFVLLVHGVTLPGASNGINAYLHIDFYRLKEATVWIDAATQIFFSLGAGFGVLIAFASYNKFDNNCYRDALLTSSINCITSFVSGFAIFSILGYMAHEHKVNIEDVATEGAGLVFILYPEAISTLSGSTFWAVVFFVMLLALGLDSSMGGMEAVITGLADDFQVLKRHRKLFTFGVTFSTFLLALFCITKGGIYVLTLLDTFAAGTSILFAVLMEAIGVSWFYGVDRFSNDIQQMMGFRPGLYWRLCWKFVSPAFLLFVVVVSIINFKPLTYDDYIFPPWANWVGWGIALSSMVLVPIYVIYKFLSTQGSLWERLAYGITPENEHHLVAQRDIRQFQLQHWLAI
Description: Selected RCQs were tested for inhibition of [^3H]neurotransmitter uptake by the recombinant human serotonin (hSERT), dopamine (HEK-hDAT), and norepinephrine (hNET) transporters by a modification of the method of Eshleman et al. (J. Pharmacol. Exp. Ther., 289(2):877-885, 1999). HEK-hDAT, hSERT, and -hNET expressing cells were grown on tissue culture dishes. After removing the medium and washing the plates with Ca^2+-, Mg^2+-free phosphate buffered saline (PBS), fresh medium was added and the plates were placed in a 25° C. water bath for 5 minutes. Cells were gently lifted from the plates and cell clusters separated by trituration. 50 μL aliquots of the suspended cells were added to assay tubes containing drugs and Krebs-HEPES assay buffer in a final volume of 0.5 mL.
Competition experiments were conducted in triplicate. After a 10 minute preincubation period at 25° C., [^3H]neurotransmitter (20 nM final concentration; [^3H]DA, [^3H]5-HT, or [^3H]NE) were added, and the mixtures incubated for 10 minutes. Reactions were terminated by filtration through Wallac filtermat A filters (presoaked in 0.05% polyethylenimine), using a Tomtec cell harvester. Scintillation fluid was added to each filtered spot, and radioactivity remaining on the filters determined using a Wallac 1205 Betaplate scintillation counter.
Specific uptake was defined as the difference in uptake observed in the absence and presence of 5 μM mazindol (hDAT and hNET) or 5 μM imipramine (hSERT). Inhibition of uptake was determined by non-linear regression using Prism software.

[3] = system: D6 (CQ^S) P. falciparum strain; test: In vitro fluorescence (Sybr Green I) growth inhibition assay, D6 strain; type: cell-based; details: Plasmodium falciparum, D6; Table 13; growth inhibition; read-out: IC50 (nM) D6 (CQ^S)
Source text: One exemplary method for measuring inhibitory effects of RCQ compound in vitro has been reported by Smilkstein et al. (Antimicrob. Agents Chemother., 48(5):1803-1806, 2004). This method employs fluorescent detection of the level of parasitemia in cultured red blood cells and can be automated for high-throughput screening of antimalarial RCQs. This exemplary method allows the inhibitory agent (such as a RCQ) to be in contact with the parasite for an entire developmental cycle without purine starvation, which is in contrast to the traditional ^3H-hypoxanthine method (Desjardins et al., Antimicrob. Agents Chemother., 16(6):710-718, 1979). Briefly, to perform the Smilkstein et al. method, an initial parasitemia of approximately 0.2% is attained by adding uninfected red blood cells (RBCs) to a stock culture of Plasmodium sp.-infected RBCs. […] After a period of incubation (such as about 72 hours), a sufficient amount (e.g., 100 μL) of a fluorescent DNA binding dye-detergent mixture (e.g., Sybr Green I dye-detergent mixture) to lyse cells and bind to DNA is added to the reactions. Because uninfected RBCs have no DNA, only parasite DNA (in infected RBCs) is available for binding to the fluorescent dye (e.g., Sybr Green I). Samples are then incubated in the dark for a period of time (e.g., one hour), followed by measurement of levels of fluorescence. For Sybr Green I, excitation and emission wavelength are 485 and 530 nm, respectively. Fluorescence readings, which represent the amount of parasite DNA in the sample, can be plotted against the Log [drug] and fit to a curve by nonlinear regression to obtain the IC50 value for the tested compound.
An in vitro fluorescence assay for determining IC50 of antimalarial drugs was performed as previously described by Smilkstein et al. (Antimicrob. Agents Chemother., 48(5):1803-1806, 2004). This relatively low-cost procedure can be automated for high-throughput screening of the antimalarial activities of RCQs described herein. Advantageous, this method also allows the tested agent (e.g, a RCQ) to be in contact with the parasite for an entire developmental cycle without purine starvation (which occurs with the commonly used ^3H-hypoxanthine method; see, e.g., Desjardins et al., Antimicrob. Agents Chemother., 16, (6):[…], 1979).
Briefly, an initial parasitemia of approximately 0.2% was attained by addition of uninfected red blood cells to a stock culture of cells infected with Dd2 (CQ^R) or D6 (CQ^S) P. falciparum strains. A 10 mM RCQ_02 solution (in DMSO) was prepared. RCQ_02 (at a final concentration from 10^−11 to 10^−4 M) and infected red blood cells (at a final concentration of 2% (v/v)) were mixed in 100 μL samples in individual wells of a 96-well plate. Each sample was prepared in triplicate. A triplicate set of reactions containing CQ (instead of RCQ_02) was included as a control. After a 72 hour incubation period, Sybr Green I dye-detergent mixture (100 μL) was added to each reaction. The samples were further incubated for an hour in the dark, and then placed in a 96-well fluorescence plate reader (Gemini-EM, […]) and analyzed with excitation and emission wavelength bands at 485 and 530 nm, respectively. Fluorescence readings were plotted against the Log [drug], and curve fitting performed by nonlinear regression to find the IC50 value.

water solubility (Water solubility): relatively low water solubility
IC50 [2]: 350 nM
SMILES: CN(CCCNc1ccnc2cc(Cl)ccc12)CCCN1c2ccccc2CCc2ccccc21 [RCQ_02, N′-(7-Chloro-quinolin-4-yl)-N-[3-(10,11-dihydro-dibenzo[b,f]azepin-5-yl)-propyl]-N-methyl-propane-1,3-diamine]
adverse side effects (weight loss, reduced eating, reduced activity, ruffled ungroomed fur) [1]: none of the treated mice showed any adverse side effects
IC50 [3]: 2.9 nM
